According to the supplement of paper PMC11451515:

Assays:
Conditions in all cases: 48 h
SEM cells [1] = assay: AUC of viability dose-response curve (% viability x log10 dose units); higher = less sensitive
In short: (§1)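 Leukemia cells adapted to each medium (500 or 1000 cells/well, 1536-well plates) were exposed to library compounds in DMSO for 48 h at 37°C at 11 threefold doses, 47 μM to 0.79 nM. Luminescence by CellTiter-Glo One was normalised per plate to DMSO and cell-free wells, then fitted with a four-parameter log-logistic curve on log10 dose. Curves above full viability were scaled and quality-control failures removed before area under the curve was integrated by trapezoidal rule.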

NOMO1 [2] = assay: as above
In short: as §1

P12-Ichikawa [3] = assay: as above
In short: as §1

SEM cells [4] = assay: cell viability relative to DMSO control; higher = less cytotoxic
In short: (§2)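 Before seeding, each leukemia line was adapted for at least four passages in each medium. NOMO1 or SEM cells (500 cells/well) and P12-Ichikawa cells (1000 cells/well) went into 1536-well plates at 5 μl, then received library compounds in DMSO by pin dosing across 11 threefold concentrations, 47 μM to 0.79 nM. Readout was CellTiter-Glo One luminescence after 48 h at 37°C, and viability is given as a per-plate percentage of DMSO wells, with cell-free wells as background.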

NOMO1 [5] = assay: as above
In short: as §2

P12-Ichikawa [6] = assay: as above
In short: as §2

CC1CNc2c(cccc2[S+](=O)([O-])N[C@@H](CCCNC(=N)N)C(=O)N2CC[C@@H](C)C[C@@H]2C(=O)O)C1 (some centres undefined)
AUC of viability dose-response curve
Conditions | NOMO1 [2] | P12-Ichikawa [3] | SEM cells [1]
HPLM + 10% dialyzed FBS | 435 | 468 | 453
RPMI 5 mM glucose + 10% FBS | 465 | 473 | 450
RPMI 5 mM glucose + 10% dialyzed FBS | 465 | 472 | 462

cell viability [%]
Conditions | NOMO1 [5] | P12-Ichikawa [6] | SEM cells [4]
HPLM + 10% dialyzed FBS, 0.000781 µM | 117 | 94.9 | 88
HPLM + 10% dialyzed FBS, 0.00234 µM | 101 | 107 | 94.7
HPLM + 10% dialyzed FBS, 0.00702 µM | 106 | 104 | 102
HPLM + 10% dialyzed FBS, 0.0211 µM | 106 | 100 | 111
HPLM + 10% dialyzed FBS, 0.0632 µM | 104 | 110 | 98.2
HPLM + 10% dialyzed FBS, 0.19 µM | 94.9 | 118 | 117
HPLM + 10% dialyzed FBS, 0.569 µM | 106 | 109 | 117
HPLM + 10% dialyzed FBS, 1.71 µM | 114 | 111 | 124
HPLM + 10% dialyzed FBS, 5.12 µM | 101 | 116 | 106
HPLM + 10% dialyzed FBS, 15.4 µM | 112 | 105 | 128
HPLM + 10% dialyzed FBS, 46.1 µM | 123 | 99.5 | 95.6
RPMI 5 mM glucose + 10% FBS, 0.000781 µM | 98.3 | 107 | 85.6
RPMI 5 mM glucose + 10% FBS, 0.00234 µM | 87.9 | 113 | 90
RPMI 5 mM glucose + 10% FBS, 0.00702 µM | 99.4 | 108 | 96.4
RPMI 5 mM glucose + 10% FBS, 0.0211 µM | 96.9 | 117 | 108
RPMI 5 mM glucose + 10% FBS, 0.0632 µM | 103 | 116 | 75.7
RPMI 5 mM glucose + 10% FBS, 0.19 µM | 98.2 | 114 | 103
RPMI 5 mM glucose + 10% FBS, 0.569 µM | 100 | 111 | 113
RPMI 5 mM glucose + 10% FBS, 1.71 µM | 93.3 | 116 | 97.1
RPMI 5 mM glucose + 10% FBS, 5.12 µM | 96.6 | 119 | 101
RPMI 5 mM glucose + 10% FBS, 15.4 µM | 100 | 116 | 107
RPMI 5 mM glucose + 10% FBS, 46.1 µM | 95.1 | 98.8 | 103
RPMI 5 mM glucose + 10% dialyzed FBS, 0.000781 µM | 86.3 | 101 | 70
RPMI 5 mM glucose + 10% dialyzed FBS, 0.00234 µM | 87.7 | 110 | 90.1
RPMI 5 mM glucose + 10% dialyzed FBS, 0.00702 µM | 101 | 104 | 101
RPMI 5 mM glucose + 10% dialyzed FBS, 0.0211 µM | 107 | 101 | 97
RPMI 5 mM glucose + 10% dialyzed FBS, 0.0632 µM | 97.6 | 111 | 99.1
RPMI 5 mM glucose + 10% dialyzed FBS, 0.19 µM | 94.3 | 107 | 103
RPMI 5 mM glucose + 10% dialyzed FBS, 0.569 µM | 101 | 107 | 107
RPMI 5 mM glucose + 10% dialyzed FBS, 1.71 µM | 110 | 109 | 106
RPMI 5 mM glucose + 10% dialyzed FBS, 5.12 µM | 99.6 | 112 | 110
RPMI 5 mM glucose + 10% dialyzed FBS, 15.4 µM | 111 | 103 | 84.7
RPMI 5 mM glucose + 10% dialyzed FBS, 46.1 µM | 102 | 89.4 | 108

CNC(=O)c1ccc(N2C(=S)N(c3cnc(C#N)c(C(F)(F)F)c3)C(=O)C23CCC3)cc1F
AUC of viability dose-response curve
Conditions | NOMO1 [2] | P12-Ichikawa [3] | SEM cells [1]
HPLM + 10% dialyzed FBS | 419 | 470 | 447
RPMI 5 mM glucose + 10% FBS | 426 | 463 | 452
RPMI 5 mM glucose + 10% dialyzed FBS | 439 | 467 | 457

cell viability [%]
Conditions | NOMO1 [5] | P12-Ichikawa [6] | SEM cells [4]
HPLM + 10% dialyzed FBS, 0.000781 µM | 79.6 | 94.2 | 92.3
HPLM + 10% dialyzed FBS, 0.00234 µM | 114 | 109 | 88.8
HPLM + 10% dialyzed FBS, 0.00702 µM | 103 | 109 | 80.1
HPLM + 10% dialyzed FBS, 0.0211 µM | 115 | 109 | 103
HPLM + 10% dialyzed FBS, 0.0632 µM | 110 | 112 | 76.8
HPLM + 10% dialyzed FBS, 0.19 µM | 116 | 111 | 95.6
HPLM + 10% dialyzed FBS, 0.569 µM | 102 | 111 | 105
HPLM + 10% dialyzed FBS, 1.71 µM | 89.8 | 114 | 98
HPLM + 10% dialyzed FBS, 5.12 µM | 69.7 | 109 | 107
HPLM + 10% dialyzed FBS, 15.4 µM | 64.8 | 95 | 101
HPLM + 10% dialyzed FBS, 46.1 µM | 50.2 | 96.3 | 95.2
RPMI 5 mM glucose + 10% FBS, 0.000781 µM | 84.9 | 86.7 | 83.9
RPMI 5 mM glucose + 10% FBS, 0.00234 µM | 113 | 95.7 | 94.1
RPMI 5 mM glucose + 10% FBS, 0.00702 µM | 111 | 97.5 | 90.7
RPMI 5 mM glucose + 10% FBS, 0.0211 µM | 104 | 106 | 93.6
RPMI 5 mM glucose + 10% FBS, 0.0632 µM | 105 | 109 | 97.1
RPMI 5 mM glucose + 10% FBS, 0.19 µM | 111 | 107 | 92.7
RPMI 5 mM glucose + 10% FBS, 0.569 µM | 96.3 | 117 | 94.8
RPMI 5 mM glucose + 10% FBS, 1.71 µM | 83.4 | 113 | 101
RPMI 5 mM glucose + 10% FBS, 5.12 µM | 79 | 111 | 98.3
RPMI 5 mM glucose + 10% FBS, 15.4 µM | 73.2 | 92.8 | 98.6
RPMI 5 mM glucose + 10% FBS, 46.1 µM | 60.2 | 96.1 | 93.9
RPMI 5 mM glucose + 10% dialyzed FBS, 0.000781 µM | 88 | 90.5 | 82.6
RPMI 5 mM glucose + 10% dialyzed FBS, 0.00234 µM | 109 | 111 | 95.3
RPMI 5 mM glucose + 10% dialyzed FBS, 0.00702 µM | 107 | 118 | 85.3
RPMI 5 mM glucose + 10% dialyzed FBS, 0.0211 µM | 104 | 118 | 91.5
RPMI 5 mM glucose + 10% dialyzed FBS, 0.0632 µM | 99.1 | 118 | 114
RPMI 5 mM glucose + 10% dialyzed FBS, 0.19 µM | 121 | 119 | 100
RPMI 5 mM glucose + 10% dialyzed FBS, 0.569 µM | 123 | 116 | 97.8
RPMI 5 mM glucose + 10% dialyzed FBS, 1.71 µM | 104 | 123 | 98.2
RPMI 5 mM glucose + 10% dialyzed FBS, 5.12 µM | 73.3 | 126 | 96.8
RPMI 5 mM glucose + 10% dialyzed FBS, 15.4 µM | 74 | 128 | 93.3
RPMI 5 mM glucose + 10% dialyzed FBS, 46.1 µM | 74.2 | 101 | 108

O=C(O)CCC1CCC(c2cc(F)ccc2F)([S+](=O)([O-])c2ccc(Cl)cc2)CC1 (centres undefined)
AUC of viability dose-response curve
Conditions | NOMO1 [2] | P12-Ichikawa [3] | SEM cells [1]
HPLM + 10% dialyzed FBS | 373 | 403 | 464
RPMI 5 mM glucose + 10% FBS | 357 | 412 | 470
RPMI 5 mM glucose + 10% dialyzed FBS | 378 | 428 | 468

cell viability [%]
Conditions | NOMO1 [5] | P12-Ichikawa [6] | SEM cells [4]
HPLM + 10% dialyzed FBS, 0.000781 µM | 98.6 | 105 | 105
HPLM + 10% dialyzed FBS, 0.00234 µM | 117 | 114 | 93.5
HPLM + 10% dialyzed FBS, 0.00702 µM | 137 | 117 | 110
HPLM + 10% dialyzed FBS, 0.0211 µM | 124 | 115 | 114
HPLM + 10% dialyzed FBS, 0.0632 µM | 140 | 114 | 115
HPLM + 10% dialyzed FBS, 0.19 µM | 139 | 121 | 115
HPLM + 10% dialyzed FBS, 0.569 µM | 146 | 128 | 109
HPLM + 10% dialyzed FBS, 1.71 µM | 85.2 | 118 | 117
HPLM + 10% dialyzed FBS, 5.12 µM | 30.5 | 86.7 | 119
HPLM + 10% dialyzed FBS, 15.4 µM | 35.4 | 21.5 | 125
HPLM + 10% dialyzed FBS, 46.1 µM | 34 | 9.14 | 116
RPMI 5 mM glucose + 10% FBS, 0.000781 µM | 122 | 99 | 104
RPMI 5 mM glucose + 10% FBS, 0.00234 µM | 115 | 125 | 110
RPMI 5 mM glucose + 10% FBS, 0.00702 µM | 125 | 117 | 117
RPMI 5 mM glucose + 10% FBS, 0.0211 µM | 124 | 126 | 126
RPMI 5 mM glucose + 10% FBS, 0.0632 µM | 117 | 118 | 112
RPMI 5 mM glucose + 10% FBS, 0.19 µM | 146 | 116 | 114
RPMI 5 mM glucose + 10% FBS, 0.569 µM | 126 | 128 | 114
RPMI 5 mM glucose + 10% FBS, 1.71 µM | 64 | 140 | 104
RPMI 5 mM glucose + 10% FBS, 5.12 µM | 25.2 | 109 | 110
RPMI 5 mM glucose + 10% FBS, 15.4 µM | 21.7 | 24.3 | 113
RPMI 5 mM glucose + 10% FBS, 46.1 µM | 23.8 | 9.78 | 81.6
RPMI 5 mM glucose + 10% dialyzed FBS, 0.000781 µM | 109 | 103 | 103
RPMI 5 mM glucose + 10% dialyzed FBS, 0.00234 µM | 137 | 117 | 105
RPMI 5 mM glucose + 10% dialyzed FBS, 0.00702 µM | 104 | 123 | 115
RPMI 5 mM glucose + 10% dialyzed FBS, 0.0211 µM | 129 | 123 | 122
RPMI 5 mM glucose + 10% dialyzed FBS, 0.0632 µM | 126 | 123 | 122
RPMI 5 mM glucose + 10% dialyzed FBS, 0.19 µM | 137 | 118 | 128
RPMI 5 mM glucose + 10% dialyzed FBS, 0.569 µM | 125 | 124 | 109
RPMI 5 mM glucose + 10% dialyzed FBS, 1.71 µM | 102 | 125 | 116
RPMI 5 mM glucose + 10% dialyzed FBS, 5.12 µM | 28.5 | 112 | 123
RPMI 5 mM glucose + 10% dialyzed FBS, 15.4 µM | 33 | 56.7 | 111
RPMI 5 mM glucose + 10% dialyzed FBS, 46.1 µM | 28.2 | 13.2 | 106
